Test results taken from US20240158446A1, “CYCLIC COMPOUND HAVING SELECTIVE INHIBITORY ACTION ON KRAS OVER HRAS AND NRAS” (CHUGAI SEIYAKU KABUSHIKI KAISHA, priority 2021, published 2024).

How the values were obtained:
[1] = molecular target: GDP-bound NRAS wild-type protein (Homo sapiens, UniProt P01111); test: Binding to NRAS by surface plasmon resonance (SPR), Single Cycle Kinetics; details: SPR, GDP-bound NRAS wild-type protein vs GDP-bound KRAS wild-type protein
[2] = molecular target: GDP-bound HRAS wild-type protein (Homo sapiens, UniProt P01112); test: Binding to HRAS by surface plasmon resonance (SPR), Single Cycle Kinetics; details: SPR, GDP-bound HRAS wild-type protein vs GDP-bound KRAS wild-type protein
[3] = tested on: human lung cancer strain NCI-H441;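 note: cell proliferation inhibition after four days measured by CellTiter-Glo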
[4] = molecular target: GDP-bound KRAS wild-type protein (Homo sapiens, UniProt P01116); test: Binding to KRAS by surface plasmon resonance (SPR), Single Cycle Kinetics; details: SPR, Single Cycle Kinetics, GDP-bound KRAS wild-type protein; read-out: KRAS KD
GDP-bound KRAS wild-type protein, sequence (P01116 whole entry): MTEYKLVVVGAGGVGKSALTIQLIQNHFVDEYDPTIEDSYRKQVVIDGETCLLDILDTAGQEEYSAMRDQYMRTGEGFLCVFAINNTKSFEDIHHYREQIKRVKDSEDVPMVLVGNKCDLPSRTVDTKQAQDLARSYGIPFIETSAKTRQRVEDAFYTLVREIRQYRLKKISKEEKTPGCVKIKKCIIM

GDP-bound HRAS wild-type protein, sequence (P01112 whole entry): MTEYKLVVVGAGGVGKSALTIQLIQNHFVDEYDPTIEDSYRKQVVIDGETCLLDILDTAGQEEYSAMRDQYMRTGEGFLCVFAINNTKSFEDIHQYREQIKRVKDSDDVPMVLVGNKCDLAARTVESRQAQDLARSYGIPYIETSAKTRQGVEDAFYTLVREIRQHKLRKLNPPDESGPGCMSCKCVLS
GDP-bound NRAS wild-type protein, sequence (P01111 whole entry): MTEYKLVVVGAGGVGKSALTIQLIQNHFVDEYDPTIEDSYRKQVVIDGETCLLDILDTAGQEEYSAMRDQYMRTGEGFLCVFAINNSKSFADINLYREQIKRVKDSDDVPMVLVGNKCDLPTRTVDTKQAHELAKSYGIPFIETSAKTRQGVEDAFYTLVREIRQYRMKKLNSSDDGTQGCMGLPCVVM

Compound | NRAS/KRAS (ratio of KD value for NRAS to KD value for KRAS) [1] | HRAS/KRAS (ratio of KD value for HRAS to KD value for KRAS) [2] | IC50 [3] [nM] | Kd [4] [nM]
CCO[C@@H]1C[C@H]2C(=O)NC3(CCC3)C(=O)N(C)[C@@H](C3CCCC3)C(=O)N(C)[C@H](C(=O)N3CCOCC3)CC(=O)N(C)[C@@H](Cc3ccc(C#N)cc3)C(=O)N[C@@H]([C@@H](C)CC)C(=O)N(C)CC(=O)N(C)[C@H]3CCCCCN(C3=O)[C@@H](Cc3ccc(C(F)(F)F)cc3)C(=O)N(C)CC(=O)N[C@@H](CCc3cc(F)c(C(F)(F)F)c(F)c3)C(=O)N2C1 [PP1167] | B (a compound having 3 or more and less than 10 is denoted as B) | B (a compound having 3 or more and less than 10 is denoted as B) | 134 | 0.5
CCO[C@@H]1C[C@H]2C(=O)NC3(CCC3)C(=O)N(C)[C@@H](C3CCCC3)C(=O)N(C)[C@H](C(=O)N3CCOCC3)CC(=O)N(C)[C@@H](Cc3ccc(Cl)c(Cl)c3)C(=O)N[C@@H]([C@@H](C)CC)C(=O)N(C)CC(=O)N(C)[C@H]3CCCCCN(C3=O)[C@@H](Cc3ccc(C(F)(F)F)cc3)C(=O)N(C)CC(=O)N[C@@H](CCc3cc(F)c(C(F)(F)F)c(F)c3)C(=O)N2C1 [PP1168] | A (a compound having 10 or more and less than 20 is denoted as A) | A (a compound having 10 or more and less than 20 is denoted as A) | 338 | 1.8
CCO[C@@H]1C[C@H]2C(=O)NC3(CCC3)C(=O)N(C)[C@@H](C3CCCC3)C(=O)N(C)[C@H](C(=O)N(C)C)CC(=O)N(C)[C@@H](Cc3cccs3)C(=O)N[C@@H]([C@@H](C)CC)C(=O)N(C)CC(=O)N(C)[C@H]3CCCCCN(C3=O)[C@@H](Cc3ccc(C(F)(F)F)cc3)C(=O)N(C)CC(=O)N[C@@H](CCc3cc(F)c(C(F)(F)F)c(F)c3)C(=O)N2C1 [PP1169] | B (a compound having 3 or more and less than 10 is denoted as B) | B (a compound having 3 or more and less than 10 is denoted as B) | 74 | 0.32
CCO[C@@H]1C[C@H]2C(=O)NC3(CCC3)C(=O)N(C)[C@@H](C3CCCC3)C(=O)N(C)[C@H](C(=O)N(C)C)CC(=O)N(C)[C@@H](Cc3ccccc3C#N)C(=O)N[C@@H]([C@@H](C)CC)C(=O)N(C)CC(=O)N(C)[C@H]3CCCCCN(C3=O)[C@@H](Cc3ccc(C(F)(F)F)cc3)C(=O)N(C)CC(=O)N[C@@H](CCc3cc(F)c(C(F)(F)F)c(F)c3)C(=O)N2C1 [PP1171] | B (a compound having 3 or more and less than 10 is denoted as B) | B (a compound having 3 or more and less than 10 is denoted as B) | 118 | 0.69
CCO[C@@H]1C[C@H]2C(=O)NC3(CCC3)C(=O)N(C)[C@@H](C3CCCC3)C(=O)N(C)[C@H](C(=O)N(C)C)CC(=O)N(C)[C@@H](Cc3cccc(C#N)c3)C(=O)N[C@@H]([C@@H](C)CC)C(=O)N(C)CC(=O)N(C)[C@H]3CCCCCN(C3=O)[C@@H](Cc3ccc(C(F)(F)F)cc3)C(=O)N(C)CC(=O)N[C@@H](CCc3cc(F)c(C(F)(F)F)c(F)c3)C(=O)N2C1 [PP1172] | B (a compound having 3 or more and less than 10 is denoted as B) | B (a compound having 3 or more and less than 10 is denoted as B) | 48.3 | 0.17
CCO[C@@H]1C[C@H]2C(=O)NC3(CCC3)C(=O)N(C)[C@@H](C3CCCC3)C(=O)N(C)[C@H](C(=O)N(C)C)CC(=O)N(C)[C@@H](Cc3ccc(C#N)cc3)C(=O)N[C@@H]([C@@H](C)CC)C(=O)N(C)CC(=O)N(C)[C@H]3CCCCCN(C3=O)[C@@H](Cc3ccc(C(F)(F)F)cc3)C(=O)N(C)CC(=O)N[C@@H](CCc3cc(F)c(C(F)(F)F)c(F)c3)C(=O)N2C1 [PP1173] | B (a compound having 3 or more and less than 10 is denoted as B) | B (a compound having 3 or more and less than 10 is denoted as B) | 70.8 | 0.18
CCO[C@@H]1C[C@H]2C(=O)NC3(CCC3)C(=O)N(C)[C@@H](C3CCCC3)C(=O)N(C)[C@H](C(=O)N(C)C)CC(=O)N(C)[C@@H](Cc3ccc(Cl)c(Cl)c3)C(=O)N[C@@H]([C@@H](C)CC)C(=O)N(C)CC(=O)N(C)[C@H]3CCCCCN(C3=O)[C@@H](Cc3ccc(C(F)(F)F)cc3)C(=O)N(C)CC(=O)N[C@@H](CCc3cc(F)c(C(F)(F)F)c(F)c3)C(=O)N2C1 [PP1174] | B (a compound having 3 or more and less than 10 is denoted as B) | B (a compound having 3 or more and less than 10 is denoted as B) | 85.2 | 1
CCO[C@@H]1C[C@H]2C(=O)NC3(CCC3)C(=O)N(C)[C@@H](C3CCCC3)C(=O)N(C)[C@H](C(=O)N3CCOCC3)CC(=O)N(C)[C@@H](C)C(=O)N[C@@H]([C@@H](C)CC)C(=O)N(C)CC(=O)N(C)[C@H]3CCCCCN(C3=O)[C@@H](Cc3ccc(F)cc3)C(=O)N(C)CC(=O)N[C@@H](CCc3cc(F)c(C(F)(F)F)c(F)c3)C(=O)N2C1 [PP1175] | B (a compound having 3 or more and less than 10 is denoted as B) | B (a compound having 3 or more and less than 10 is denoted as B) | 23.5 | 0.16
CCO[C@@H]1C[C@H]2C(=O)NC3(CCC3)C(=O)N(C)[C@@H](C3CCCC3)C(=O)N(C)[C@H](C(=O)N3CCOCC3)CC(=O)N(C)[C@@H](CC)C(=O)N[C@@H]([C@@H](C)CC)C(=O)N(C)CC(=O)N(C)[C@H]3CCCCCN(C3=O)[C@@H](Cc3ccc(F)cc3)C(=O)N(C)CC(=O)N[C@@H](CCc3cc(F)c(C(F)(F)F)c(F)c3)C(=O)N2C1 [PP1176] | B (a compound having 3 or more and less than 10 is denoted as B) | B (a compound having 3 or more and less than 10 is denoted as B) | 50 | 0.13
CCO[C@@H]1C[C@H]2C(=O)NC3(CCC3)C(=O)N(C)[C@@H](C3CCCC3)C(=O)N(C)[C@H](C(=O)N3CCOCC3)CC(=O)N(C)[C@@H](CC(F)F)C(=O)N[C@@H]([C@@H](C)CC)C(=O)N(C)CC(=O)N(C)[C@H]3CCCCCN(C3=O)[C@@H](Cc3ccc(F)cc3)C(=O)N(C)CC(=O)N[C@@H](CCc3cc(F)c(C(F)(F)F)c(F)c3)C(=O)N2C1 [PP1177] | B (a compound having 3 or more and less than 10 is denoted as B) | B (a compound having 3 or more and less than 10 is denoted as B) | 32.5 | 0.081
CCO[C@@H]1C[C@H]2C(=O)NC3(CCC3)C(=O)N(C)[C@@H](C3CCCC3)C(=O)N(C)[C@H](C(=O)N3CCOCC3)CC(=O)N(C)[C@@H](CC3CC3)C(=O)N[C@@H]([C@@H](C)CC)C(=O)N(C)CC(=O)N(C)[C@H]3CCCCCN(C3=O)[C@@H](Cc3ccc(F)cc3)C(=O)N(C)CC(=O)N[C@@H](CCc3cc(F)c(C(F)(F)F)c(F)c3)C(=O)N2C1 [PP1178] | B (a compound having 3 or more and less than 10 is denoted as B) | B (a compound having 3 or more and less than 10 is denoted as B) | 26.3 | 0.16
CCO[C@@H]1C[C@H]2C(=O)NC3(CCC3)C(=O)N(C)[C@@H](C3CCCC3)C(=O)N(C)[C@H](C(=O)N3CCOCC3)CC(=O)N(C)[C@@H](COC)C(=O)N[C@@H]([C@@H](C)CC)C(=O)N(C)CC(=O)N(C)[C@H]3CCCCCN(C3=O)[C@@H](Cc3ccc(F)cc3)C(=O)N(C)CC(=O)N[C@@H](CCc3cc(F)c(C(F)(F)F)c(F)c3)C(=O)N2C1 [PP1179] | B (a compound having 3 or more and less than 10 is denoted as B) | B (a compound having 3 or more and less than 10 is denoted as B) | 56.9 | 0.091
CCO[C@@H]1C[C@H]2C(=O)NC3(CCC3)C(=O)N(C)[C@@H](C3CCCC3)C(=O)N(C)[C@H](C(=O)N3CCOCC3)CC(=O)N(C)[C@@H](CCOC)C(=O)N[C@@H]([C@@H](C)CC)C(=O)N(C)CC(=O)N(C)[C@H]3CCCCCN(C3=O)[C@@H](Cc3ccc(F)cc3)C(=O)N(C)CC(=O)N[C@@H](CCc3cc(F)c(C(F)(F)F)c(F)c3)C(=O)N2C1 [PP1180] | B (a compound having 3 or more and less than 10 is denoted as B) | B (a compound having 3 or more and less than 10 is denoted as B) | 46.9 | 0.17
CCO[C@@H]1C[C@H]2C(=O)NC3(CCC3)C(=O)N(C)[C@@H](C3CCCC3)C(=O)N(C)[C@H](C(=O)N3CCOCC3)CC(=O)N(C)[C@@H](Cc3cccs3)C(=O)N[C@@H]([C@@H](C)CC)C(=O)N(C)CC(=O)N(C)[C@H]3CCCCCN(C3=O)[C@@H](Cc3ccc(F)cc3)C(=O)N(C)CC(=O)N[C@@H](CCc3cc(F)c(C(F)(F)F)c(F)c3)C(=O)N2C1 [PP1183] | B (a compound having 3 or more and less than 10 is denoted as B) | B (a compound having 3 or more and less than 10 is denoted as B) | 27.8 | 0.26
CCO[C@@H]1C[C@H]2C(=O)NC3(CCC3)C(=O)N(C)[C@@H](C3CCCC3)C(=O)N(C)[C@H](C(=O)N3CCOCC3)CC(=O)N(C)[C@@H](Cc3ccsc3)C(=O)N[C@@H]([C@@H](C)CC)C(=O)N(C)CC(=O)N(C)[C@H]3CCCCCN(C3=O)[C@@H](Cc3ccc(F)cc3)C(=O)N(C)CC(=O)N[C@@H](CCc3cc(F)c(C(F)(F)F)c(F)c3)C(=O)N2C1 [PP1184] | B (a compound having 3 or more and less than 10 is denoted as B) | B (a compound having 3 or more and less than 10 is denoted as B) | 91.9 | 0.16
